Here are results for 20 compounds from patent US11472811B2, “Pyrazolotriazolopyrimidine derivatives as A2A receptor antagonist” (BEIGENE, LTD., priority 2018, dated 2022).

In this experiment the target is human A2A receptor (A2AR) (Homo sapiens (Human), UniProt P29274). Kind of experiment: Luciferase reporter assay (HEK293-A2AR-luc2p/CRE/Hygro cells). It counts as cell-based. The settings on record: 3 nM CGS21680, 5 h incubation. In outline:
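Antagonism was scored as inhibition of CRE-luciferase signal driven by 3 nM CGS21680 (=100%) during a 5 h treatment with compound at 0.1–10000 nM. The line was HEK293 stably carrying human A2AR and luc2P/CRE, preincubated 18 h in 1% FBS containing 1 U/mL ADA. IC50 came from the dose-response curve.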
(In general: Reporter assays use an easily measured gene product as a stand-in for the process of interest.)

Chain of human A2A receptor (A2AR) (P29274 whole entry): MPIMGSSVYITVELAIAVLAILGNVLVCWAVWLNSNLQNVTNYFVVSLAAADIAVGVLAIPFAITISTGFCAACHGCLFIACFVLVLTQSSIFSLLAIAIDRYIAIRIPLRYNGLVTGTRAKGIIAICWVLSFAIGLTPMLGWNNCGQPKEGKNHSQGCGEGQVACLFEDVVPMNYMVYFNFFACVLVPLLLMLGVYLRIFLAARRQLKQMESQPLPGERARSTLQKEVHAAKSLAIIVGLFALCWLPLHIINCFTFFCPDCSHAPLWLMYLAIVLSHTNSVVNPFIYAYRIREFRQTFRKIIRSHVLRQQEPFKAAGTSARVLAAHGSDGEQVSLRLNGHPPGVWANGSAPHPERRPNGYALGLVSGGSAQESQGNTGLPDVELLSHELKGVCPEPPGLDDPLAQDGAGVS

In general, IC50 refers to the concentration that gives 50% inhibition. Low readings indicate inhibition by little substance, high ones a need for much substance. With `Cc1cccc(C(C)(C(=O)NCC2(O)COC2)n2ncc3c2nc(N)n2nc(-c4ccco4)nc32)c1` (centres unmarked) [Example 85, 2-(5-amino-2-(furan-2-yl)-7H-pyrazolo[4,3-e][1,2,4]triazolo[1,5-c]pyrimidin-7-yl)-N-((3-hydroxyoxetan-3-yl)methyl)-2-(m-tolyl)propanamide], the IC50 was 7.3 nM. This lies in the single-digit nanomolar range.

With `CC(C(=O)N[C@H]1CC[C@@H](O)CC1)(c1ccccc1)n1ncc2c1nc(N)n1nc(-c3ccco3)nc21` (relative stereo) [Example 76, 2-(5-amino-2-(furan-2-yl)-7H-pyrazolo[4,3-e][1,2,4]triazolo[1,5-c]pyrimidin-7-yl)-(cis)-N-(4-hydroxycyclohexyl)-2-phenylpropanamide], the half-inhibitory concentration (IC50) stood at 5.2 nM.

In the case of `CC(C(=O)NCc1ccc2c(c1)OCO2)(c1ccccc1)n1ncc2c1nc(N)n1nc(-c3ccco3)nc21` (centres unmarked) [Example 42, 2-(5-amino-2-(furan-2-yl)-7H-pyrazolo[4,3-e][1,2,4]triazolo[1,5-c]pyrimidin-7-yl)-N-(benzo[d][1,3]dioxol-5-ylmethyl)-2-phenylpropanamide], it took 3.9 nM to reach half-maximal inhibition (IC50).

The compound `Nc1nc2c(cnn2C(C(=O)NC2CCOCC2)c2ccccc2)c2nc(-c3ccco3)nn12` (centres unmarked) [Example 11, 2-(5-amino-2-(furan-2-yl)-7H-pyrazolo[4,3-e][1,2,4]triazolo[1,5-c]pyrimidin-7-yl)-2-phenyl-N-(tetrahydro-2H-pyran-4-yl)acetamide] had a half-inhibitory concentration (IC50) of 36 nM.

As to `CC(C(=O)N[C@@H]1CCC[C@@H]1O)(c1ccccc1)n1ncc2c1nc(N)n1nc(-c3ccco3)nc21` (stereo partly drawn) [Example 48, 2-(5-amino-2-(furan-2-yl)-7H-pyrazolo[4,3-e][1,2,4]triazolo[1,5-c]pyrimidin-7-yl)-N-((1R,2S)-2-hydroxycyclopentyl)-2-phenylpropanamide], half-maximal inhibition (IC50) required 2.9 nM.

Regarding `CC(C(=O)NC1CC1)(c1ccccc1)n1ncc2c1nc(N)n1nc(-c3ccco3)nc21` (centres unmarked) [Example 40, 2-(5-amino-2-(furan-2-yl)-7H-pyrazolo[4,3-e][1,2,4]triazolo[1,5-c]pyrimidin-7-yl)-N-cyclopropyl-2-phenylpropanamide], it took 14.9 nM to reach half-maximal inhibition (IC50).

`CC(C(=O)N[C@H]1COC[C@H]1O)(c1ccccc1)n1ncc2c1nc(N)n1nc(-c3ccco3)nc21` (stereo partly drawn) [Example 107, 2-(5-amino-2-(furan-2-yl)-7H-pyrazolo[4,3-e][1,2,4]triazolo[1,5-c]pyrimidin-7-yl)-N-((3S,4S)-4-hydroxytetrahydrofuran-3-yl)-2-phenylpropanamide] returned an IC50 of 76.3 nM.

As for `CC(C(=O)N[C@H]1CC[C@@H](O)C1)(c1ccccc1)n1ncc2c1nc(N)n1nc(-c3ccco3)nc21` (stereo partly drawn) [Example 136, 2-(5-amino-2-(furan-2-yl)-7H-pyrazolo[4,3-e][1,2,4]triazolo[1,5-c]pyrimidin-7-yl)-N-((1S,3R)-3-hydroxycyclopentyl)-2-phenylpropanamide], half-maximal inhibition (IC50) was put at 7.9 nM.

In turn, `Nc1nc2c(cnn2C(C(=O)NCc2cccc(C(F)(F)F)c2)c2ccccc2)c2nc(-c3ccco3)nn12` (centres unmarked) [Example 22, 2-(5-amino-2-(furan-2-yl)-7H-pyrazolo[4,3-e][1,2,4]triazolo[1,5-c]pyrimidin-7-yl)-2-phenyl-N-(3-(trifluoromethyl)benzyl)acetamide] displayed an IC50 of 1.4 nM. Against the preceding compound, the IC50 is about 5.6-fold lower.

Consider `Cc1cccnc1CNC(=O)[C@@](C)(c1ccccc1)n1ncc2c1nc(N)n1nc(-c3ccco3)nc21` [Example 111B, (R)-2-(5-amino-2-(furan-2-yl)-7H-pyrazolo[4,3-e][1,2,4]triazolo[1,5-c]pyrimidin-7-yl)-N-((3-methylpyridin-2-yl)methyl)-2-phenylpropanamide], for which the IC50 worked out at 0.5 nM.

`Nc1nc2c(cnn2C(C(=O)N[C@H]2CCCC[C@H]2O)c2ccccc2)c2nc(-c3ccco3)nn12` (stereo partly drawn) [Example 91, 2-(5-amino-2-(furan-2-yl)-7H-pyrazolo[4,3-e][1,2,4]triazolo[1,5-c]pyrimidin-7-yl)-N-((1S,2R)-2-hydroxycyclohexyl)-2-phenylacetamide] had an IC50 of 15.1 nM.

`C[C@](C(=O)NCCN1CCC(O)CC1)(c1ccccc1)n1ncc2c1nc(N)n1nc(-c3ccco3)nc21` [Example 148B, (R)-2-(5-amino-2-(furan-2-yl)-7H-pyrazolo[4,3-e][1,2,4]triazolo[1,5-c]pyrimidin-7-yl)-N-(2-(4-hydroxypiperidin-1-yl)ethyl)-2-phenylpropanamide] displayed an IC50 of 19.3 nM.

`CC(C(=O)NC1CCCC(O)C1)(c1ccccc1)n1ncc2c1nc(N)n1nc(-c3ccco3)nc21` (centres unmarked) [Example 99, 2-(5-amino-2-(furan-2-yl)-7H-pyrazolo[4,3-e][1,2,4]triazolo[1,5-c]pyrimidin-7-yl)-N-(3-hydroxycyclohexyl)-2-phenylpropanamide]: the IC50 amounted to 12 nM. This IC50 lies about 1.6-fold lower than the previous one.

`C[C@](C(=O)NC1CCSCC1)(c1ccccc1)n1ncc2c1nc(N)n1nc(-c3ccco3)nc21` [Example 145B, (R)-2-(5-amino-2-(furan-2-yl)-7H-pyrazolo[4,3-e][1,2,4]triazolo[1,5-c]pyrimidin-7-yl)-2-phenyl-N-(tetrahydro-2H-thiopyran-4-yl)propanamide] showed an IC50 of 9 nM.

In the case of `CC(C(=O)NC1CCC(O)C1)(c1ccccc1)n1ncc2c1nc(N)n1nc(-c3ccco3)nc21` (centres unmarked) [Example 36, 2-(5-amino-2-(furan-2-yl)-7H-pyrazolo[4,3-e][1,2,4]triazolo[1,5-c]pyrimidin-7-yl)-N-(3-hydroxycyclopentyl)-2-phenylpropanamide], the IC50 came out at 12.9 nM.

Turning to `CC(C(=O)N[C@@H]1CC[C@H](O)C1)(c1ccccc1)n1ncc2c1nc(N)n1nc(-c3ccco3)nc21` (stereo partly drawn) [Example 135, 2-(5-amino-2-(furan-2-yl)-7H-pyrazolo[4,3-e][1,2,4]triazolo[1,5-c]pyrimidin-7-yl)-N-((1R,3S)-3-hydroxycyclopentyl)-2-phenylpropanamide], the midpoint of inhibition, the IC50, lay at 11.2 nM.

Turning to `Nc1nc2c(cnn2C(C(=O)NCC2(O)COC2)c2ccccc2)c2nc(-c3ccco3)nn12` (centres unmarked) [Example 82, 2-(5-amino-2-(furan-2-yl)-7H-pyrazolo[4,3-e][1,2,4]triazolo[1,5-c]pyrimidin-7-yl)-N-((3-hydroxyoxetan-3-yl)methyl)-2-phenylacetamide], it took 4.5 nM to reach half-maximal inhibition (IC50). This IC50 lies about 2.5-fold lower than the previous one.

In the case of `Nc1nc2c(cnn2C(C(=O)NCc2ccc(F)cc2)c2ccccc2)c2nc(-c3ccco3)nn12` (centres unmarked) [Example 26, 2-(5-amino-2-(furan-2-yl)-7H-pyrazolo[4,3-e][1,2,4]triazolo[1,5-c]pyrimidin-7-yl)-N-(4-fluorobenzyl)-2-phenylacetamide], the 50% inhibitory concentration (IC50) turned out to be 2.6 nM. This IC50 is about 1.7-fold lower than that of the compound before.

As for `Nc1nc2c(cnn2C(C(=O)N[C@@H]2CCOc3ccccc32)c2ccccc2)c2nc(-c3ccco3)nn12` (stereo partly drawn) [Example 15, 2-(5-amino-2-(furan-2-yl)-7H-pyrazolo[4,3-e][1,2,4]triazolo[1,5-c]pyrimidin-7-yl)-N—((R)-chroman-4-yl)-2-phenylacetamide], the IC50 is 7.9 nM.

On to `CC(C(=O)Nc1ccncc1)(c1ccccc1)n1ncc2c1nc(N)n1nc(-c3ccco3)nc21` (centres unmarked) [Example 65, 2-(5-amino-2-(furan-2-yl)-7H-pyrazolo[4,3-e][1,2,4]triazolo[1,5-c]pyrimidin-7-yl)-2-phenyl-N-(pyridin-4-yl)propanamide], for which it took 25.5 nM to reach half-maximal inhibition (IC50).
